# Legend:
# DSS induced colitis [1] = experiment: DSS colitis treatment study: (+) SW033291, dexamethasone or combination from day 8; assay type: in vivo, mice; settings: (+) SW033291 5 mpk IP twice daily, dexamethasone 0.06 mpk IP daily
# DSS induced colitis [2] = experiment: dextran sodium sulfate (DSS) induced colitis, 2% DSS days 1-7, SW033291 versus vehicle; assay type: in vivo, FVB male mice
# Procedure: In the study, 8-12 week old FVB male mice were fed with 2% DSS in drinking water for days 1-7, and then switched to normal drinking water beginning on day 8, and continued through day 22. […] Clinical scoring (body weight, rectal bleeding, stool consistency) was recorded daily, endoscopic scoring (ulcer number, mucosal thickening, and vascular pattern) was assessed on days 8, 11, 15. Mice were sacrificed on days 1, 8, 15 and 22 for assessment of colon length, colon weight, ulcer number, ulcer area, and crypt damage.
# The Disease Activity Index is calculated as an equally weighted average of the change from baseline weight, the consistency of stool, and the presence of rectal bleeding, with each component normalized to span an identical numerical range.
# In addition to the gross visual inspection and scoring of colitis activity by the MEICS index, full length colons of mice were formalin fixed and paraffin embedded, and microscopic scoring of crypt damage was performed using the 0-4 severity scale of Cooper H S. Et al., Lab Invest. 1993; 69:238-249. For this analysis, the colons were divided into 3 segments of proximal, middle, and distal colon, each approximately 1.6 cm in length, with each segment was further subdivided into 4 sections each approximately 4 mm in length. For each section the crypt damage severity score was multiplied by the length in mm of the damaged area, creating a 0-16 cryptitis severity index. An average cryptitis severity index was calculated for each segment (proximal, middle, and distal colon), and the summed whole colon cryptitis severity index was determined on a scale of 0-48 for each mouse colon.
# Mice were injected with BrdU at 100 mg/kg IP 3 hours before sacrifice and then full length colons were formalin fixed and embedded in paraffin. S-phase cells, that have incorporated BrdU into DNA, were visualized by immuno-fluorescent staining of 5 μm thick sections with an antibody that detects the BrdU. Colonic crypts were visualized by immuno-fluorescent staining with an antibody to the epithelial marker E-Cadherin. […] Red immune-fluorescence identifies BrdU positive nuclei, and green immune-fluorescence identifies E-Cadherin positive colonocytes. The number of BrdU positive cell per crypt is determined by counting the number of dual labeled red and green cells per average crypt. Green only cells that are not in S-phase are not counted, and red only cells, that are likely stromal cells outside of crypts, are also not counted. […] The graph depicts the sum of the average number of BrdU positive cells per crypt in the distal colon plus the average number of BrdU positive cells per crypt middle colons of control (Cn), […] treated (Tx), and 15-PGDH knockout mice (KO) on day 1, day 8, and day 15 of the DSS treatment protocol.
# [3] = stability on incubation with hepatocyte cell lines; assay type: in vitro ADME
# [4] = stability on incubation with hepatocyte extracts; assay type: in vitro ADME
# [5] = stability on incubation with rat liver extracts; assay type: in vitro ADME
# [6] = stability on incubation with mouse liver extracts; assay type: in vitro ADME
# [7] = stability on incubation with human liver extracts; assay type: in vitro ADME
structure (smiles),measurement,setting,value
"CCCC[S+]([O-])c1sc2nc(-c3cccs3)cc(-c3ccccc3)c2c1N (single isomer, unassigned; (+)) [(+) SW033291]",daily weights (weight loss),"DSS induced colitis [1]; days 1-17, from day 8, FIG. 15",some amelioration of weight loss
CCCC[S+]([O-])c1sc2nc(-c3cccs3)cc(-c3ccccc3)c2c1N (centres unmarked) [SW033291],average change from baseline weight versus control,"DSS induced colitis [2]; 5 mg/kg IP twice daily, 22 days, FIG. 1",greater weight at all time points
same,weight gain after washout of DSS versus control,"DSS induced colitis [2]; 5 mg/kg IP twice daily, P=0.001, FIG. 1",faster weight gain
same,Wt @sacrifice,DSS induced colitis [2]; Baseline,25.9 ± 0.7 gm
same,Wt @sacrifice,DSS induced colitis [2]; Day 8,26.4 ± 0.5 gm
same,Wt @sacrifice,DSS induced colitis [2]; Day 15,25.2 ± 0.9 gm
same,Wt @sacrifice,DSS induced colitis [2]; Day 22,28.2 ± 0.5 gm
same,body weight versus vehicle control (in words),DSS induced colitis [2]; day 22,greater body weight
same,colon length versus vehicle control (in words),DSS induced colitis [2]; day 22,greater colon lengths
same,ulcer formation prevented (colonoscopy),"DSS induced colitis [2]; days 8, 11, 15, versus control, FIG. 4A",two-thirds
same,MEICS score versus vehicle,"DSS induced colitis [2]; days 8, 11 and 15, FIG. 7",significantly less colitis activity
"C[C@@H]1C[C@H]2[C@@H]3CCC4=CC(=O)C=C[C@]4(C)[C@@]3(F)[C@@H](O)C[C@]2(C)[C@@]1(O)C(=O)CO [dexamethasone, reference compound]",percent decrease in total DAI (relative disease reduction),"DSS induced colitis [1]; area under the DAI curve, FIG. 17B",15%
CCCC[S+]([O-])c1sc2nc(-c3cccs3)cc(-c3ccccc3)c2c1N (centres unmarked) [formula (IX)],chemical stability when incubated with hepatocyte cell lines,[3],chemically stable
same,chemical stability when incubated with hepatocyte extracts,[4],chemically stable
CCCC[S+]([O-])c1sc2nc(-c3nccs3)cc(-c3cnc(C)n3C)c2c1N (centres unmarked) [formula (X)],chemical stability when incubated with liver extracts,[5],chemically stable
same,chemical stability when incubated with liver extracts,[6],chemically stable
same,chemical stability when incubated with liver extracts,[7],chemically stable
